This is an account of results in EP4177246A1, “FUSED OXAZEPINES AS INHIBITORS OF PEROXIREDOXINS” (Centro Atlántico del Medicamento, SA, priority 2021, dated 2023).

One assay deals with T1, PRDX1 (Homo sapiens, UniProt Q06830).
T1 construct: treatment of untreated MDA-MB-231 cell lysates with a resin coupled to compound 24; endogenous in cells; host or cells: MDA-MB-231 (ATCC HTB-26)
T1 sequence (Q06830 1-199): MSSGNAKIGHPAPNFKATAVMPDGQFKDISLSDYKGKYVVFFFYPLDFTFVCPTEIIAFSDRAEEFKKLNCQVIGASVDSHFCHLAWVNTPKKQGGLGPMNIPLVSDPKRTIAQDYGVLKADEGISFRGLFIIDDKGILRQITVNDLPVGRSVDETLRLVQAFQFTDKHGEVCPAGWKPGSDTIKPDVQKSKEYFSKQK
Briefly: Western blot of monomeric/dimeric and oxidized forms of PRDX1 in treated cells. The note with it: 1 µM, MDA-MB-231 cells. The assay is classed as cell-based. The protocol:
To that end, compound 24 1 µM was added to MDA-MB-231 cells and followed by Western Blot analysis. β-actin was used as control.
Non-reducing and reducing conditions used are those commonly used to assess the status of PRDX1 (see ref. 34 and 35) ref. 35
In general terms: In western blotting, separated proteins are transferred to a membrane and probed.

The test system of the next assay is K562. The experiment in a line: MTT cell viability assay, K562 cells. It is filed as cell-based. The note with it: Homo sapiens, 48 h drug exposure. An outline of the steps: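 Human CML-derived K562 cells seeded at 1000-5000/well with 10% FBS, treated after 24 h with compound (10 to 0,01 µM) or 0.05% DMSO vehicle for 48 h. MTT (0.3 mg/ml) added 2-4 h at 37 °C, formazan dissolved in DMSO, OD 595 nm; IC50 from non-linear regression, 3 replicates.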

The next assay relates to MCF-7. The experiment in a line: MTT cell viability assay, MCF-7 cells. The assay is classed as cell-based. The conditions noted are these: Homo sapiens, MCF7, 48 h drug exposure. (Tetrazolium assays rely on reduction of a dye to a coloured formazan, in cell work by metabolically active cells.)
A further assay relates to PRDX1 and/or PRDX2. The experiment in a line: Resin-bound affinity chromatography with competition/elution by free compound (type of binding). Also noted: species or system human. The conditions noted are these: MDA-MB-231 cell lysates; pre-incubation 1.5 hours with 50 micrograms of free compound; SDS-PAGE, silver staining. The protocol:
The immobilization of compound (24) and the identification of its targets was accomplished using a previously described method [Orive-Ramos A, Seoane S, Ocaña A, Pandiella A, Montero JC. Regulation of the prometastatic neuregulin-MMP13 axis by SRC family kinases: therapeutic implications. Mol Oncol. 2017 Dec; 11(12): 1788-1805] (ref. 32). Briefly, 5 mg of the compound was dissolved in a coupling solution (50% dimethylformamide, 50% 0.1 M Na2CO3), and incubated with 0.5 mg of epoxy-activated sepharose 6B (GE Healthcare Life Sciences; Piscataway, NJ, USA), obtaining a CM728-coupled resin. A control resin was prepared without the compound (uncoupled). Both resins were incubated with 25 mg of cell extracts from MDA-MB-231 and BT-549 cancer cells.
The resulting complexes were retrieved by centrifugation, washed with lysis buffer, re-suspended and boiled in loading buffer and resolved in SDS-PAGE. The gel was silver stained and the bands of interest were excised, digested by trypsin (Figure 1). […]
In another experiment the resins collected after being incubated with cell lysates (analyzed in lanes 1 and 2) were further treated with free compound 24 to elute non-covalent compound 24 specific, binding proteins. […]

A word on the IC50: it is the concentration at which inhibition is half-maximal. A lower IC50 goes with greater potency. For the compound `O=C1C2=C(C(=O)c3c(O)ccc(O)c31)N(c1cccnc1)Cc1ccccc1O2` [Compound 24, 7,10-dihydroxy-12-(pyridin-3-yl)-12,13-dihydrobenzo[f]naphtho[2,3-b][1,4]oxazepine-6,11-dione], the “conversion of PRDX1 monomeric form into dimeric form” value at PRDX1 (non-reducing conditions) was “a rapid conversion of PRDX1 from its basal active monomeric form, into its inactive dimeric form”. At PRDX1 (reducing conditions), the “levels of hyperoxidized PRDX1 (SO2/3-Prdx)” value was “a significant increase in the levels of inactive hyperoxidized 2-cystiene PRDX1”. Moreover, the IC50 was 0.1 µM in the assay on K562 and 1.72 µM in the assay on MCF-7. For the same compound, the “manner in which compound binds to PRDX1 and/or PRDX2” value in the assay on PRDX1 and/or PRDX2 is “non-reversible covalent manner”.
